The values that follow come from patent US11661577B2, “Co-incubating confined microbial communities” (CALIFORNIA INSTITUTE OF TECHNOLOGY, priority 2007, dated 2023).

In assay [1] the test system is Methicillin Resistant S. aureus (MRSA). The conditions noted are these: CFX 24 mg/L; stated as known; cited from earlier work.
Assay [2] deals with Methicillin Sensitive S. aureus (MSSA). The conditions noted are these: CFX 24 mg/L; stated as known; cited from earlier work.
For assay [3], the system named is Methicillin Resistant S. aureus (MRSA). The assay can be described thus: MIC determination in plugs. The conditions noted are these: Staphylococcus aureus, 6.75 h, read-out: MIC of CFX for MRSA.
The subject of assay [4] is Methicillin Sensitive S. aureus (MSSA). The assay can be described thus: MIC determination in plugs. The conditions noted are these: Staphylococcus aureus, 6.5 h, read-out: MIC of CFX for MSSA.
The test system of assay [5] is MSSA (Staphylococcus aureus ATCC# 25923). Description: Antibiotic testing on Mueller Hinton agar plates. The conditions noted are these: 30° C., even after 40 h.
Method: Plates were made from Mueller Hinton Agar (Fluka, Switzerland). After autoclaving, the agar was cooled and antibiotics were added and 20 mL plates were poured. For CFX and OXA testing, 50 μL of MRSA and MSSA bacterial culture at 4×10^3 CFU/mL was spread onto separate TSA plates. The plates were incubated at 30° C. After 16.5 h and 40 h the plates were examined for colonies. […] For AMP, ERT, LVF, and VCM, 5 μL of culture at 2×10^4 CFU/mL were spread onto plates, and the plates were incubated at 37° C. for 12 h. After 12 h, growth of colonies on the plates was considered resistance to the antibiotic and no colonies on the plates were considered sensitivity to the antibiotic.
Assay [6] has as its system Methicillin Resistant S. aureus (MRSA, ATCC# 43300). Description: Plug-based microfluidic antibiotic susceptibility screen (stochastic confinement, alamarBlue viability indicator). The conditions noted are these: breakpoint concentration, 4 nL plugs, 4×10^5 CFU/mL, 7 h at 37° C. In kind it is cell-based, Staphylococcus aureus.
For another assay, the system named is S. aureus strain (MRSA). The assay can be described thus: Macro-scale experiments (negative control check). In kind it is cell-based, Staphylococcus aureus. The conditions noted are these: data not shown.
The next assay deals with MSSA. Description: Plug-based drug screening in human blood plasma/LB. The conditions noted are these: 1:1 human blood plasma/LB; breakpoint concentration; 7.5 h at 37° C.

For `CO[C@@]1(NC(=O)Cc2cccs2)C(=O)N2C(C(=O)O)=C(COC(N)=O)CS[C@@H]21` [CFX, cefoxitin], the “Inhibition of MRSA at the positive control concentration” value in assay [1] is recorded as “inhibited”. The “Inhibition of MSSA at the positive control concentration” value in assay [2] is given as “inhibited”. The MIC in assay [3] is < 8000 µg/mL; in assay [4] it was < 4000 µg/mL. Moreover, in assay [5], the “Appearance of MSSA colonies on antibiotic plates” value is listed as “did not appear”.
Turning to `CN[C@H](CC(C)C)C(=O)N[C@H]1C(=O)N[C@@H](CC(N)=O)C(=O)N[C@H]2C(=O)N[C@H]3C(=O)N[C@H](C(=O)N[C@H](C(=O)O)c4cc(O)cc(O)c4-c4cc3ccc4O)[C@H](O)c3ccc(c(Cl)c3)Oc3cc2cc(c3O[C@@H]2O[C@H](CO)[C@@H](O)[C@H](O)[C@H]2O[C@H]2C[C@](C)(N)[C@H](O)[C@H](C)O2)Oc2ccc(cc2Cl)[C@H]1O` [VCM, vancomycin], the “Susceptibility of MRSA to antibiotic (increase in fluorescence intensity of plugs versus 3 times the VCM baseline)” value was “sensitive” in assay [6] and “not resistant” in assay [6] (listed as Vancomycin). Further, the “Inhibition of the S. aureus strain in macro-scale experiments” value in the assay with S. aureus strain (MRSA) is “inhibited”.
As to `Cc1onc(-c2ccccc2)c1C(=O)N[C@@H]1C(=O)N2[C@@H]1SC(C)(C)[C@@H]2C(=O)O` [OXA, oxacillin], in assay [5], the “Appearance of MSSA colonies on antibiotic plates” value was “did not appear”.
As for `CC1(C)S[C@@H]2[C@H](NC(=O)[C@H](N)c3ccccc3)C(=O)N2[C@H]1C(=O)O` [AMP, ampicillin], the “Increase in fluorescence intensity of plugs containing MSSA and antibiotic” value in the assay on MSSA is “no increase in fluorescence intensity”.
